{"source": "patent US20220175776A1", "about": "“COMBINATION OF CHIR99021 AND VALPROIC ACID FOR TREATING HEARING LOSS” (Frequency Therapeutics, Inc., priority 2019, published 2022)", "origin": "cited, not measured here", "key": {"gamma secretase": {"target": "gamma secretase", "conditions": "SH-SY5Y cells; read-out: Lit cell conc, IC50; cited from earlier work"}, "HER 2": {"target": "HER 2 (Homo sapiens, UniProt P04626)", "sequence (P04626 23-1255)": "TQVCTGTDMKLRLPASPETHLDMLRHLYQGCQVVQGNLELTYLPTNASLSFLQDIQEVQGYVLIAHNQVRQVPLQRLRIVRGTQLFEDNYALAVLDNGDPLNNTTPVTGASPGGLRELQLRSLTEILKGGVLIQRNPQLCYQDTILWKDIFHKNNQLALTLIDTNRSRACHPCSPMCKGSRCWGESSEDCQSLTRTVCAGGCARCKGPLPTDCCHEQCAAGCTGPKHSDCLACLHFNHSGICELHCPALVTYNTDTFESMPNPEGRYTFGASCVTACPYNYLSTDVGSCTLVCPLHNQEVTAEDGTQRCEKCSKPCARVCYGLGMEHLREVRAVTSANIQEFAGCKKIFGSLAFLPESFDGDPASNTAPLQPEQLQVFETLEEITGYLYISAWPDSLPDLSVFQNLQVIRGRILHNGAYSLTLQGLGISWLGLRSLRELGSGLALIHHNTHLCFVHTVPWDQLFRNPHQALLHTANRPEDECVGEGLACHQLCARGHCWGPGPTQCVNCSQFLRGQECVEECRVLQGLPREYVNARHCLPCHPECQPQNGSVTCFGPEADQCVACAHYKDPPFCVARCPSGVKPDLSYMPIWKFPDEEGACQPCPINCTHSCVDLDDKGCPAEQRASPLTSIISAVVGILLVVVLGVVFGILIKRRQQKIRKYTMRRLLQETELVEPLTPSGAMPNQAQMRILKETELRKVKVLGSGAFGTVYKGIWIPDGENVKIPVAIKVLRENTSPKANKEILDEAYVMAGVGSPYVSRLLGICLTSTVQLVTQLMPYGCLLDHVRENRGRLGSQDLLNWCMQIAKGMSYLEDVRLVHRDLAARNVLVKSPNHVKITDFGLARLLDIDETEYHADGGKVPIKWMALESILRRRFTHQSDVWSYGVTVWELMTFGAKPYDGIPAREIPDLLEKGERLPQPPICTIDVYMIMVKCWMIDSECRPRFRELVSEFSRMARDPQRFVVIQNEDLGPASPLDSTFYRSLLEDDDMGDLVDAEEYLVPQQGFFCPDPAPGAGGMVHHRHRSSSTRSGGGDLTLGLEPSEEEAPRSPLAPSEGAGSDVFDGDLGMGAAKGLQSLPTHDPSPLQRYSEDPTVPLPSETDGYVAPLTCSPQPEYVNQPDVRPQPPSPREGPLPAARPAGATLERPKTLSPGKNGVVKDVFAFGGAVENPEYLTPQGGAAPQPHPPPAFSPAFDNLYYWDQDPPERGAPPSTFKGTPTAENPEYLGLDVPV", "conditions": "Table 13; cited from earlier work"}, "HER 4": {"target": "HER 4 (Homo sapiens, UniProt Q15303)", "sequence (Q15303 26-1308)": "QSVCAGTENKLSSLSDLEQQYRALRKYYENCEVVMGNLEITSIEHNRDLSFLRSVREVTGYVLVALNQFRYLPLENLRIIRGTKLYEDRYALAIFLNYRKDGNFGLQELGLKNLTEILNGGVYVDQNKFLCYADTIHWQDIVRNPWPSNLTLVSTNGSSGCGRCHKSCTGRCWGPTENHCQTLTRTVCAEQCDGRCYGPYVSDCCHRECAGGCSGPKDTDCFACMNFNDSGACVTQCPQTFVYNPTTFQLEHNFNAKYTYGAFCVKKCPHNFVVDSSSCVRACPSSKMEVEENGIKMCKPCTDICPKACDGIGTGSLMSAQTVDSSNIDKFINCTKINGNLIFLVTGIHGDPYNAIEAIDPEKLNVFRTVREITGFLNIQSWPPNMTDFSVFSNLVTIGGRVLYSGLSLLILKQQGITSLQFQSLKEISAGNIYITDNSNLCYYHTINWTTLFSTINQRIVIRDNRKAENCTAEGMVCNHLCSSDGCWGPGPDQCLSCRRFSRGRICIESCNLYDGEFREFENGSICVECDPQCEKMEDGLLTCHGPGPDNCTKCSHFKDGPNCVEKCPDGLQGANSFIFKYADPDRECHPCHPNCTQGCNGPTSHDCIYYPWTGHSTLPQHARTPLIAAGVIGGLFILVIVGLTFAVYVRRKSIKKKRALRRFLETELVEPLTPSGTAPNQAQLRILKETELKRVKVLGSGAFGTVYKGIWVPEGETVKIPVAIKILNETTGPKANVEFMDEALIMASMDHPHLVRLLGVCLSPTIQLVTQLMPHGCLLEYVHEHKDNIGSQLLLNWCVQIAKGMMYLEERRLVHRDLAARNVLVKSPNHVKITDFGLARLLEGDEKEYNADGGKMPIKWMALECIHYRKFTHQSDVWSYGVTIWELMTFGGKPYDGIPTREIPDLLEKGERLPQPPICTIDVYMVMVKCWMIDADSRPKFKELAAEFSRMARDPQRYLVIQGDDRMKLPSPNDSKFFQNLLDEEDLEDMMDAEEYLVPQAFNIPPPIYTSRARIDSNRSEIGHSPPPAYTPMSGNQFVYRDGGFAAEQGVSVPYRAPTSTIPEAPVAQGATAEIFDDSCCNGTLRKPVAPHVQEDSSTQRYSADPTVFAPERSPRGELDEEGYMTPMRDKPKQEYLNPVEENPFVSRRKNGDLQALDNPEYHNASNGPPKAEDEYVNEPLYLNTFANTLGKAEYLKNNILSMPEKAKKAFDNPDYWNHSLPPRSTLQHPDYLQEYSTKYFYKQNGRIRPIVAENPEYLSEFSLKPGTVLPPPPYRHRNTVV", "conditions": "Table 13; cited from earlier work"}}}
{"smiles": "O=C(O)CCC1CCC(c2cc(F)ccc2F)(S(=O)(=O)c2ccc(Cl)cc2)CC1", "note": "(stereo not drawn) [MK-0572]", "values": [{"measurement": "IC50", "setting": "gamma secretase", "result": 5, "unit": "nM"}]}
{"smiles": "C=CC(=O)N1CCC(Oc2cc3c(Nc4ccc(Cl)c(Cl)c4F)ncnc3cc2OC)CC1", "note": "[poziotinib]", "values": [{"measurement": "IC50", "setting": "HER 2", "result": 5, "unit": "nM"}, {"measurement": "IC50", "setting": "HER 4", "result": 23, "unit": "nM"}]}
